# Values of other authors, collected in US20040259899A1, “Combination therapy for constipation” (priority 2003, published 2004).
# Settings: white crystalline powder as provided (Mallinckrodt Pharmaceuticals)
compound,measurement,value
"C[N@+]1(CC2CC2)CC[C@]23c4c5ccc(O)c4O[C@H]2C(=O)CC[C@@]3(O)[C@H]1C5 [Methylnaltrexone, N-cyclopropylmethylnoroxy-morphine-methobromide]",solubility in water,freely soluble
